19 molecules from patent publication US12240862B2, “Inhibitors of peptidylarginine deiminases” (Gilead Sciences, Inc., priority 2020, dated 2025) can be followed below.

For this assay, the target named is T1, human PAD4 (Homo sapiens, UniProt Q9UM07).
T1 construct: human PAD4 (NM_012387), A2P663, was PCR amplified; His-SUMO (N, cleaved yes); made in house; host or cells: E. coli BL21(DE3)
T1 sequence (Q9UM07 2-663): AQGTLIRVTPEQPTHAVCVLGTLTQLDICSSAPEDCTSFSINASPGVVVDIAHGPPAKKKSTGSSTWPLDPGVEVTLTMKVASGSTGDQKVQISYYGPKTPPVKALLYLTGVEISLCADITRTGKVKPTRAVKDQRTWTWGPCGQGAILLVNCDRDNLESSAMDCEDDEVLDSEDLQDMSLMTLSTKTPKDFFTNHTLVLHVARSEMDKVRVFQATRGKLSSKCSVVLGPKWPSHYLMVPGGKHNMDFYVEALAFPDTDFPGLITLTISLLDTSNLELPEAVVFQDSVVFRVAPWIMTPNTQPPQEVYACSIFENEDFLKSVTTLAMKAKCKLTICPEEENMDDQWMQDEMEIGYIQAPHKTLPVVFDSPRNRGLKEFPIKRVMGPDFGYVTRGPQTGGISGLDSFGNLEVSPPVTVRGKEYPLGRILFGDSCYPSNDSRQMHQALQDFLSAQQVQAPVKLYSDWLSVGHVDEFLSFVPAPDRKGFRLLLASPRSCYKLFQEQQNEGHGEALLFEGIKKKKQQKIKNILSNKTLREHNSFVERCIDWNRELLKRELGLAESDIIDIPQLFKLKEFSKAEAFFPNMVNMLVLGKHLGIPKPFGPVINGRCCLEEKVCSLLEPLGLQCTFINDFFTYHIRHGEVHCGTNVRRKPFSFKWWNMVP
Put plainly: In vitro PAD4 BAEE biochemical assay. The following applies: human PAD4, BAEE substrate; 5 nM PAD4, 2 mM calcium chloride, 3 mM BAEE; geometric mean of multiple experiments. The method, boiled down:
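Ammonia release from BAEE deimination monitored by o-phthalaldehyde amine coupling (1 h, 25 °C) after EDTA stop. Final conditions: 5 nM tag-free recombinant human PAD4 (E. coli), 2 mM CaCl2, 3 mM BAEE, pH 7.6 MOPS with DTT; 30 min compound preincubation, then 2 h reaction at 25 °C.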
Consider `COCC1(C(=O)N[C@H](C)c2ccc3cc(-c4nc5cc(C(=O)N6[C@H]7CC[C@@H]6[C@H](N)C7)cc(OC)n5c4C)n(CC4CC4)c3n2)CC1` [Example 68, ~{N}-[(1~{R})-1-[2-[7-[(1~{R},2~{R},4~{S})-2-amino-7-azabicyclo [2.2.1]heptane-7-carbonyl]-5-methoxy-3-methylimidazo [1,2-a]pyridin-2-yl]-1-(cyclopropylmethyl)pyrrolo[2,3-b]pyridin-6-yl]ethyl]-1-(methoxymethyl) cyclopropane-1-carboxamide], for which the 50% inhibitory concentration (IC50) (in general, the concentration that inhibits the measured activity by half) turned out to be 45.3 nM.
Turning to `COc1cc(C(=O)N2[C@H]3CC[C@@H]2[C@H](N)C3)cc2nc(-c3cc4ccc([C@@H](C)NC(=O)N5CCOC[C@H]5C(F)(F)F)nc4n3CC3CC3)c(C)n12` [Example 200, (3~{S})-~{N}-[(1~{R})-1-[2-[7-[(1~{R},2~{R},4~{S})-2-amino-7-azabicyclo[2.2.1]heptane-7-carbonyl]-5-methoxy-3-methylimidazo [1,2-a]pyridin-2-yl]-1-(cyclopropylmethyl)pyrrolo [2,3-b]pyridin-6-yl]ethyl]-3-(trifluoromethyl)morpholine-4-carboxamide], the IC50 is 44.1 nM.
With `COc1cc(C(=O)N2CC[C@@H](NC(C)=O)[C@@H](N)C2)cc2nc(-c3cc4ccc(N(C(F)F)S(C)(=O)=O)nc4n3CC3CC3)c(C)n12` [Example 360, ~{N}-[(3~{S},4~{R})-3-amino-1-[2-[1-(cyclopropylmethyl)-6-[difluoromethyl (methylsulfonyl)amino]pyrrolo[2,3-b]pyridin-2-yl]-5-methoxy-3-methylimidazo[1,2-a]pyridine-7-carbonyl]piperidin-4-yl]acetamide], the IC50 came to 725 nM.
Turning to `COc1cc(C(=O)N2CCC[C@@H](N)C2)cc2nc(-c3cc4ccc([C@@H](C)NC(=O)OC5CCCC5)nc4n3CC3CC3)c(C)n12` [Example 255, cyclopentyl~{N}-[(1~{R})-1-[2-[7-[(3~{R})-3-aminopiperidine-1-carbonyl]-5-methoxy-3-methylimidazo[1,2-a]pyridin-2-yl]-1-(cyclopropylmethyl)pyrrolo [2,3-b]pyridin-6-yl]ethyl] carbamate], the 50% inhibitory concentration (IC50) came out at 286 nM.
With `COc1cc(C(=O)N2CCC[C@@H](N)C2)cc2nc(-c3cc4ccc(OCC(=O)N(C)C)nc4n3CC3CC3)c(C)n12` [Example 620, 2-[2-[7-[(3~{R})-3-aminopiperidine-1-carbonyl]-5-methoxy-3-methylimidazo[1,2-a]pyridin-2-yl]-1-(cyclopropylmethyl)pyrrolo[2,3-b]pyridin-6-yl] oxy-~{N},~{N}-dimethylacetamide], the IC50 is 1190 nM.
In the case of `COc1cc(C(=O)N2[C@H]3CC[C@@H]2[C@H](N)C3)cc2nc(-c3cc4ccc([C@@H](C)NC(=O)C(C)(C)O)nc4n3CC3CC3)c(C)n12` [Example 126, ~{N}-[(1~{R})-1-[2-[7-[(1~{R},2~{R},4~{S})-2-amino-7-azabicyclo[2.2.1]heptane-7-carbonyl]-5-methoxy-3-methylimidazo [1,2-a]pyridin-2-yl]-1-(cyclopropylmethyl)pyrrolo [2,3-b]pyridin-6-yl]ethyl]-2-hydroxy-2-methylpropanamide] it was 45.9 nM.
Regarding `COc1cc(C(=O)N2[C@H]3CC[C@@H]2[C@H](N)C3)cc2nc(-c3cc4ccc(C(C)(O)C(C)C)nc4n3CC3CC3)c(C)n12` (stereo partly shown) [Example 571, [(1~{R},2~{R},4~{S})-2-amino-7-azabicyclo [2.2.1]heptan-7-yl]-[2-[1-(cyclopropylmethyl)-6-(2-hydroxy-3-methylbutan-2-yl)pyrrolo[2,3-b]pyridin-2-yl]-5-methoxy-3-methylimidazo[1,2-a]pyridin-7-yl]methanone], the half-maximal inhibitory concentration (IC50) stood at 465 nM.
`CS(=O)(=O)N(c1ccc2cc(-c3nc4cc(C(=O)N5C[C@H]6CC[C@@H]5[C@@H]6N)ccn4c3C3CC3)n(CC3CC3)c2n1)C(F)F` [Example 396, N-[2-[7-[(1R,4R,7R)-7-amino-2-azabicyclo [2.2.1]heptane-2-carbonyl]-3-cyclopropyl-imidazo[1,2-a]pyridin-2-yl]-1-(cyclopropylmethyl)pyrrolo [2,3-b]pyridin-6-yl]-N-(difluoromethyl) methanesulfonamide]: the IC50 worked out at 194 nM.
In the case of `COc1cc(C(=O)N2CCC[C@@H](N)C2)cc2nc(-c3cc4ccc(O[C@H](C)C(=O)N(C)C)nc4n3CC3CC3)c(C)n12` [Example 619, (2~{R})-2-[2-[7-[(3~{R})-3-aminopiperidine-1-carbonyl]-5-methoxy-3-methylimidazo [1,2-a]pyridin-2-yl]-1-(cyclopropylmethyl)pyrrolo [2,3-b]pyridin-6-yl]oxy-~{N},~{N}-dimethylpropanamide] it was 686 nM.
Consider `COc1cc(C(=O)N2[C@H]3CC[C@@H]2[C@H](N)C3)cc2nc(-c3cc4ccc(N(C(F)F)S(C)(=O)=O)nc4n3CC3CC3)c(CC(C)C)n12` [Example 429, ~{N}-[2-[7-[(1~{R},2~{R}, 4~{S})-2-amino-7-azabicyclo[2.2.1]heptane-7-carbonyl]-5-methoxy-3-(2-methylpropyl)imidazo[1,2-a]pyridin-2-yl]-1-(cyclopropylmethyl)pyrrolo [2,3-b]pyridin-6-yl]-~{N}-(difluoromethyl) methanesulfonamide], for which the 50% inhibitory concentration (IC50) amounted to 851 nM.
Turning to `COc1cc(C(=O)N2[C@H]3CC[C@@H]2[C@H](N)C3)cc2nc(-c3cc4ccc([C@@H](C)NC(=O)NC5COC5)nc4n3CC3CC3)c(C)n12` [Example 229, 1-[(1~{R})-1-[2-[7-[(1~{R},2~{R},4~{S})-2-amino-7-azabicyclo[2.2.1]heptane-7-carbonyl]-5-methoxy-3-methylimidazo [1,2-a]pyridin-2-yl]-1-(cyclopropylmethyl)pyrrolo [2,3-b]pyridin-6-yl]ethyl]-3-(oxetan-3-yl)urea], the concentration for half-maximal inhibition (IC50) was 108 nM.
On to `COc1cc(C(=O)N2C[C@H](N)[C@@H](F)C2)cc2nc(-c3cc4ccc(N(C(F)F)S(C)(=O)=O)nc4n3CC3CC3)c(C)n12` [Example 290, ~{N}-[2-[7-[(3~{S}, 4~{S})-3-amino-4-fluoropyrrolidine-1-carbonyl]-5-methoxy-3-methylimidazo [1,2-a]pyridin-2-yl]-1-(cyclopropylmethyl)pyrrolo [2,3-b]pyridin-6-yl]-~{N}-(difluoromethyl) methanesulfonamide], for which the half-inhibitory concentration (IC50) amounted to 9870 nM.
As to `COc1cc(C(=O)N2CCC[C@@H](N)C2)cc2nc(-c3cc4cc(F)c(Cl)cc4n3CC3CC3)c(C)n12` [Example 590, [(3~{R})-3-aminopiperidin-1-yl]-[2-[6-chloro-1-(cyclopropylmethyl)-5-fluoroindol-2-yl]-5-methoxy-3-methylimidazo[1,2-a]pyridin-7-yl]methanone], the IC50 worked out at 9820 nM.
In the case of `COc1cc(C(=O)N2[C@H]3CC[C@@H]2[C@H](N)C3)cc2nc(-c3cc4ccc([C@@H](C)N5CCCC5=O)nc4n3CC3CC3)c(C)n12` [Example 276, 1-[(1~{R})-1-[2-[7-[(1~{R},2~{R},4~{S})-2-amino-7-azabicyclo[2.2.1]heptane-7-carbonyl]-5-methoxy-3-methylimidazo [1,2-a]pyridin-2-yl]-1-(cyclopropylmethyl)pyrrolo [2,3-b]pyridin-6-yl]ethyl]pyrrolidin-2-one] it was 61.6 nM; in that of `COc1cc(C(=O)N2[C@H]3CC[C@@H]2[C@H](N)C3)cc2nc(-c3cc4ccc(N5CCCN(C)S5(=O)=O)nc4n3CC3CC3)c(C)n12` [Example 455, [(1~{R},2~{R},4~{S})-2-amino-7-azabicyclo [2.2.1]heptan-7-yl]-[2-[1-(cyclopropylmethyl)-6-(6-methyl-1,1-dioxo-1,2,6-thiadiazinan-2-yl)pyrrolo[2,3-b]pyridin-2-yl]-5-methoxy-3-methylimidazo[1,2-a]pyridin-7-yl]methanone], 113 nM; in that of `COc1cc(C(=O)N2[C@H]3CC[C@@H]2[C@H](N)C3)cc2nc(-c3cc4ccc([C@@H](C)NC(=O)NC5CCOCC5)nc4n3CC3CC3)c(C)n12` [Example 214, 1-[(1~{R})-1-[2-[7-[(1~{R},2~{R},4~{S})-2-amino-7-azabicyclo[2.2.1]heptane-7-carbonyl]-5-methoxy-3-methylimidazo [1,2-a]pyridin-2-yl]-1-(cyclopropylmethyl)pyrrolo [2,3-b]pyridin-6-yl]ethyl]-3-(oxan-4-yl)urea], 45 nM.
In the case of `COc1cc(C(=O)N2[C@H]3CC[C@@H]2[C@H](N)C3)cc2nc(-c3cc4ccc(-c5ccccc5C(F)(F)F)nc4n3CC3CC3)c(C)n12` [Example 549, [(1~{R},2~{R},4~{S})-2-amino-7-azabicyclo [2.2.1]heptan-7-yl]-[2-[1-(cyclopropylmethyl)-6-[2-(trifluoromethyl)phenyl]pyrrolo[2,3-b]pyridin-2-yl]-5-methoxy-3-methylimidazo[1,2-a]pyridin-7-yl]methanone] it was 3670 nM; in that of `COc1cc(C(=O)NC[C@H]2CCCCN2)cc2nc(-c3cc4ccc(N(C(F)F)S(C)(=O)=O)nc4n3CC3CC3)c(C)n12` [Example 295, 2-[1-(cyclopropylmethyl)-6-[difluoromethyl (methylsulfonyl)amino]pyrrolo[2,3-b]pyridin-2-yl]-5-methoxy-3-methyl-~{N}-[[(2~{R})-piperidin-2-yl]methyl] imidazo[1,2-a]pyridine-7-carboxamide], 27200 nM.
With “[(1~{R},2~{R},4~{S})-2- amino-7- azabicyclo[2.2.1]heptane-7- carbonyl]- 5-methoxy-3-methylimidazo [1,2-a]pyridin-2-yl]-1- (cyclopropylmethyl)pyrrolo [2,3-b]pyridin-6-yl]ethyl]-3- hydroxybicyclo[1.1.1] pentane-1-carboxamide [Example 87]”, the IC50 was found to be 28.6 nM.
